Laboratory results from ChEMBL document CHEMBL6121063, “Identification of a Potent and Selective CDK9 Degrader as a Targeted Therapeutic Option for the Treatment of Small-Cell Lung Cancer” (J Med Chem, 2025).
Values after ≈ are worked out from the molar mass of the structure shown.

How the values were obtained:
[1] = target: T1, Protein cereblon/Cyclin-dependent kinase 9 (Homo sapiens, UniProt P50750+Q96SW2); experiment: PROTAC activity at CRBN/CDK9 in human NCI-H69 cells assessed as induction of CDK9 degradation at 10 nM by Western blot analysis relative to control; type: cell-based
Target sequence in this assay (P50750 whole entry, looked up): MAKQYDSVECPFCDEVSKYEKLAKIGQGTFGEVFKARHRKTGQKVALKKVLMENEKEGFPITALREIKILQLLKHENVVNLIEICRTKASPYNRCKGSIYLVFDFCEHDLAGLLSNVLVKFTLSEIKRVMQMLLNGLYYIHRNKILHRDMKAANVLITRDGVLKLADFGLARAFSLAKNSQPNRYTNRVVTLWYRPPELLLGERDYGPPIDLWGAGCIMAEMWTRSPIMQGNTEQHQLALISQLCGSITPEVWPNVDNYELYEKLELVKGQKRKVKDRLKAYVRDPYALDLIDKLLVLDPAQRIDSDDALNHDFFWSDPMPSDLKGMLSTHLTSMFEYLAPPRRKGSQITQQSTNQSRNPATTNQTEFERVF
Target sequence in this assay (Q96SW2 whole entry, looked up): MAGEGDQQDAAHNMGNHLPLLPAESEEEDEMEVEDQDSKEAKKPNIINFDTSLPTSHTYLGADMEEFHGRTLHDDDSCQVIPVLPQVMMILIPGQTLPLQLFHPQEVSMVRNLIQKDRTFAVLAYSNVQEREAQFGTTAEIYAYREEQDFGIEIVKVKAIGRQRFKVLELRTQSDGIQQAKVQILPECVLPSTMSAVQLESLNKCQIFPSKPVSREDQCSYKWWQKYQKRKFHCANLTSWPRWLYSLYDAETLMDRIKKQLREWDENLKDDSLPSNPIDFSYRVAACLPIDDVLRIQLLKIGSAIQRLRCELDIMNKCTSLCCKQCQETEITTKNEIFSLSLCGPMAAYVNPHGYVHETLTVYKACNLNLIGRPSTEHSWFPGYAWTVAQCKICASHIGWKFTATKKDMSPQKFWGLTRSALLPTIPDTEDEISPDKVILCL

NCI-H69 [2] = experiment: Antiproliferative activity against human NCI-H69 cells assessed as inhibition of cell growth incubated for 72 hrs by CCK8 assay; type: functional, cell-based; details: NCI-H69, 72 h
[3] = target: T1, Protein cereblon/Cyclin-dependent kinase 9; experiment: PROTAC activity at CRBN/CDK9 in human NCI-H446 cells assessed as induction of CDK9 degradation at 10 nM by Western blot analysis relative to control; type: cell-based
Target sequence in this assay (P50750 whole entry, looked up): as the sequence (P50750 whole entry, looked up) above
Target sequence in this assay (Q96SW2 whole entry, looked up): as the sequence (Q96SW2 whole entry, looked up) above

NCI-H446 = experiment: Antiproliferative activity against human NCI-H446 cells assessed as inhibition of cell growth incubated for 72 hrs by CCK8 assay; type: functional, cell-based; details: NCI-H446, 72 h
[4] = Kinetic solubility of compound in FeSSIF buffer incubated for 2 hrs by LC-MS/MS analysis; type: physicochemical; details: read-out: Kinetic_solubility
[5] = target: T1, Protein cereblon/Cyclin-dependent kinase 9; experiment: PROTAC activity at CRBN/CDK9 in human NCI-H69 cells assessed as induction of CDK9 degradation incubated for 8 hrs by Western blot analysis; type: cell-based
Target sequence in this assay (P50750 whole entry): as the sequence (P50750 whole entry, looked up) above
Target sequence in this assay (Q96SW2 whole entry): as the sequence (Q96SW2 whole entry, looked up) above

[6] = Metabolic stability in mouse liver microsomes assessed as parent compound remaining measured after 60 mins; type: ADME, Microsome; details: read-out: Stability
[7] = Metabolic stability in mouse liver microsomes assessed as half-life; type: ADME, Microsome; details: for half-life: liver microsomes
[8] = Metabolic stability in mouse liver microsomes assessed as intrinsic clearance; type: ADME, Microsome; details: for microsomal CLint: liver microsomes, read-out: CLH
[9] = Metabolic stability in human liver microsomes assessed as parent compound remaining measured after 60 mins; type: ADME, Microsome; details: read-out: Stability
[10] = Metabolic stability in human liver microsomes assessed as half-life; type: ADME, Microsome; details: for half-life: liver microsomes
[11] = Metabolic stability in human liver microsomes assessed as intrinsic clearance; type: ADME, Microsome; details: for microsomal CLint: liver microsomes, read-out: CLH
[12] = Apparent permeability across apical to basolateral side in human Caco-2 cells at 2 uM measured after 60 mins by HPLC analysis; type: ADME, cell-based
[13] = Apparent permeability across basolateral to apical side in human Caco-2 cells at 2 uM measured after 60 mins by HPLC analysis; type: ADME, cell-based
[14] = Efflux ratio of apparent permeability across basolateral to apical over apical to basolateral side in human Caco-2 cells at 2 uM measured after 60 mins by HPLC analysis; type: ADME, cell-based
[15] = target: CDK9/cyclin T1 (Homo sapiens) (UniProt O60563+P50750); experiment: Inhibition of CDK9/Cyclin T1 (unknown origin) at 10 nM relative to control; type: protein-complex assay
[16] = target: Cyclin-dependent kinase 13/Cyclin-K (Homo sapiens) (UniProt Q14004+O75909); experiment: Inhibition of CDK13/Cyclin K (unknown origin) at 10 nM relative to control; type: protein-complex assay
[17] = target: CDK12/Cyclin K (Homo sapiens) (UniProt O75909+Q9NYV4); experiment: Inhibition of CDK12/Cyclin K (unknown origin) at 10 nM relative to control; type: protein-complex assay
[18] = target: T2, Cyclin-dependent kinase 5/CDK5 activator 1 (Homo sapiens) (UniProt Q00535+Q15078); experiment: Inhibition of CDK5/p25NCK (unknown origin) at 10 nM relative to control; type: protein-complex assay
[19] = target: CDK4/Cyclin D3 (Homo sapiens) (UniProt P11802+P30281); experiment: Inhibition of CDK4/cyclin D3 (unknown origin) at 10 nM relative to control; type: protein-complex assay
[20] = target: Cyclin-dependent kinase 4/cyclin D1 (Homo sapiens) (UniProt P11802+P24385); experiment: Inhibition of CDK4/cyclin D1 (unknown origin) at 10 nM relative to control; type: protein-complex assay
[21] = target: T2, Cyclin-dependent kinase 5/CDK5 activator 1 (Homo sapiens); experiment: Inhibition of CDK5/p35NCK (unknown origin) at 10 nM relative to control; type: protein-complex assay
[22] = target: CDK6/cyclin D1 (Homo sapiens) (UniProt P24385+Q00534); experiment: Inhibition of CDK6/cyclin D1 (unknown origin) at 10 nM relative to control; type: protein-complex assay
[23] = target: Cyclin-dependent kinase 1/cyclin B1 (Homo sapiens) (UniProt P06493+P14635); experiment: Inhibition of CDK1/cyclin B1 (unknown origin) at 10 nM relative to control; type: protein-complex assay
[24] = target: CDK6/cyclin D3 (Homo sapiens) (UniProt P30281+Q00534); experiment: Inhibition of CDK6/cyclin D3 (unknown origin) at 10 nM relative to control; type: protein-complex assay
[25] = target: CDK3/Cyclin E (Homo sapiens) (UniProt P24864+Q00526); experiment: Inhibition of CDK3/cyclin E1 (unknown origin) at 10 nM relative to control; type: protein-complex assay
NCI-H69 [26] = experiment: Induction of apoptosis in human NCI-H69 cells assessed as decrease in MCL-1 expression incubated for 36 hrs by Western blot analysis; type: functional, cell-based
NCI-H69 [27] = experiment: Induction of apoptosis in human NCI-H69 cells assessed as decrease in BCL-2 expression incubated for 36 hrs by Western blot analysis; type: functional, cell-based
NCI-H69 [28] = experiment: Induction of apoptosis in human NCI-H69 cells assessed as increase in cleaved PARP level incubated for 36 hrs by Western blot analysis; type: functional, cell-based
NCI-H69 [29] = experiment: Induction of apoptosis in human NCI-H69 cells assessed as increase in cleaved caspase-3 level incubated for 36 hrs by Western blot analysis; type: functional, cell-based
NCI-H69 [30] = experiment: Induction of apoptosis in human NCI-H69 cells assessed as increase in p53 level incubated for 36 hrs by Western blot analysis; type: functional, cell-based

T2 sequence (Q00535 whole entry): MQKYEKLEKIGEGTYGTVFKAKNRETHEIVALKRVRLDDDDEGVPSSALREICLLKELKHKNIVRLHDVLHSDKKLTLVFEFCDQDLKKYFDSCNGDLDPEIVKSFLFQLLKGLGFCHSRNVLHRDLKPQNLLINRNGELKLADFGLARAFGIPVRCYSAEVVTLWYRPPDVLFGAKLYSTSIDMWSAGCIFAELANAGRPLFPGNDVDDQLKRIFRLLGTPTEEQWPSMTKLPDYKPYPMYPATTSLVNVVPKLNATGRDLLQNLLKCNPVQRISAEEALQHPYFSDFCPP
T2 sequence (Q15078 99-307 partner limits assumed): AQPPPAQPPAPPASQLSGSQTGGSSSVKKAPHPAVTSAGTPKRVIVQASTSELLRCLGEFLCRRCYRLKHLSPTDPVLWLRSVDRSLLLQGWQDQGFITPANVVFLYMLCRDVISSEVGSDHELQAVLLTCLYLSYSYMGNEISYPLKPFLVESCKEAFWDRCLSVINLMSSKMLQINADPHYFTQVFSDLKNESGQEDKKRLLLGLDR
Chain of Cyclin-dependent kinase 1/cyclin B1 (Homo sapiens) (P06493 whole entry, looked up): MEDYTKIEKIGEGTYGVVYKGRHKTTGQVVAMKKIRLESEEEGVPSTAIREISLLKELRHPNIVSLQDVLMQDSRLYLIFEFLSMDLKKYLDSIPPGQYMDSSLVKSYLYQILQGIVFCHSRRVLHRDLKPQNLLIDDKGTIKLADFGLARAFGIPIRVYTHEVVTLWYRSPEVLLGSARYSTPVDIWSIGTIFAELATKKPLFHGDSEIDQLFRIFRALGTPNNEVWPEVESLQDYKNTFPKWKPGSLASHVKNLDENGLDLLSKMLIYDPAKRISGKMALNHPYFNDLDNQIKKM
Chain of Cyclin-dependent kinase 1/cyclin B1 (Homo sapiens) (P14635 whole entry, looked up): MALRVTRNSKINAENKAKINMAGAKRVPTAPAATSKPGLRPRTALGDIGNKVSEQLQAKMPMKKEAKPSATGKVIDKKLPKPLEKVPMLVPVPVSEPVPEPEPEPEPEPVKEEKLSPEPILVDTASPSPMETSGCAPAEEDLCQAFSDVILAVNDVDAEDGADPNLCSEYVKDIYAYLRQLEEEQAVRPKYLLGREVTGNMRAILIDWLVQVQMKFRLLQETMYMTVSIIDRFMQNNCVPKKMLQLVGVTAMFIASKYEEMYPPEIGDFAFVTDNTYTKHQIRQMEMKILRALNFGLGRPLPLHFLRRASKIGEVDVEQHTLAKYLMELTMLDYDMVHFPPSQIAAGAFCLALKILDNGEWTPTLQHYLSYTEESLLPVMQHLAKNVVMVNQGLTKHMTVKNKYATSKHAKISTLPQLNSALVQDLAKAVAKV
Chain of CDK3/Cyclin E (Homo sapiens) (P24864 whole entry, looked up): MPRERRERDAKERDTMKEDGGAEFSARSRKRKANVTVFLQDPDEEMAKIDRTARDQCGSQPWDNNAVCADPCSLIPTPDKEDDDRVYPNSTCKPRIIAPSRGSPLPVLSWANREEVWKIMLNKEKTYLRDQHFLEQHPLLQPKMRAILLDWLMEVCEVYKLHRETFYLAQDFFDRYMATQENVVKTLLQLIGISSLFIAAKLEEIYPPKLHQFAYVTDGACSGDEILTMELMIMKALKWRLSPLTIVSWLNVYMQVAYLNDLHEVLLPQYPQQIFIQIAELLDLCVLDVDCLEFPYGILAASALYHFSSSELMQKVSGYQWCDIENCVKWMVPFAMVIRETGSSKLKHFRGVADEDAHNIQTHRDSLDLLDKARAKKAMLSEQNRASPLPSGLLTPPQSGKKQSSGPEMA
Chain of CDK3/Cyclin E (Homo sapiens) (Q00526 whole entry, looked up): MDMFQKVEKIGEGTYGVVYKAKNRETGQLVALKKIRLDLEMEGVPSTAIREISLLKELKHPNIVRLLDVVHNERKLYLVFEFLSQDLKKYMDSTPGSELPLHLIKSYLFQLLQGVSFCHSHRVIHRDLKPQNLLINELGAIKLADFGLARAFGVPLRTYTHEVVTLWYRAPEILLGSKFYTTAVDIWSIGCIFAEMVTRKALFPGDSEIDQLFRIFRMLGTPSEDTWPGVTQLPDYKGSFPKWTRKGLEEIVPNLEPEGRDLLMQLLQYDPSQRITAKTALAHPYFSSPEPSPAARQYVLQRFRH

SMILES	Activity [1] [%]	IC50 (NCI-H69 [2]) [nM]	Activity [3] [%]	IC50 (NCI-H446) [nM]	other results
O=C1CCC(N2C(=O)c3ccc(N4CCN(C(=O)CN5CCC(CN6CCC(NC(=O)c7n[nH]cc7NC(=O)c7c(Cl)cccc7Cl)CC6)CC5)CC4)cc3C2=O)C(=O)N1 (centres undefined)	51.5	5.75	49.9	18.1	
O=C1CCC(N2C(=O)c3cccc(NCCCCCCCN4CCC(NC(=O)c5n[nH]cc5NC(=O)c5c(Cl)cccc5Cl)CC4)c3C2=O)C(=O)N1 (centres undefined)	10.6	179	21.3	62.9	
O=C(O)Cc1ccccc1Nc1c(Cl)cccc1Cl [DICLOFENAC]					solubility kinetic at 2 h [4]: 316 µM (≈ 93.6 µg/mL)
O=C1CCC(N2C(=O)c3ccc(N4CCN(CC5CCN(C(=O)CN6CCC(NC(=O)c7n[nH]cc7NC(=O)c7c(Cl)cccc7Cl)CC6)CC5)CC4)cc3C2=O)C(=O)N1 (centres undefined)	88.4	6.46	78.2	3.7	DC50 [5]: 4.5 nM; remaining at 1 h [6]: 61.2%; half-life [7]: 84.5 min; microsomal CLint [8]: 16.4 µL/min/mg; remaining at 1 h [9]: 3.2%; half-life [10]: 6.17 min; microsomal CLint [11]: 225 µL/min/mg
CC(C)NCC(O)COc1cccc2ccccc12 (centres undefined) [PROPRANOLOL]					Papp A→B at 1 h, 2 µM [12]: 9.64 ×10⁻⁶ cm/s; Papp B→A at 1 h, 2 µM [13]: 15.4 ×10⁻⁶ cm/s; efflux ratio at 1 h, 2 µM [14]: 1.6
O=C1CCC(N2C(=O)c3ccc(N4CCN(CC(=O)N5CCC(NC(=O)c6n[nH]cc6NC(=O)c6c(Cl)cccc6Cl)CC5)CC4)cc3C2=O)C(=O)N1 (centres undefined)	45.5	726	30.9	349	
Cc1ncc2n1-c1ccc(Cl)cc1C(c1ccccc1F)=NC2 [MIDAZOLAM]					t1/2 ([7]; microsomes): 2.72 min; CLH ([8]; microsomes): 1270 µL/min/mg; t1/2 ([10]; microsomes): 2.9 min; CLH ([11]; microsomes): 1200 µL/min/mg
O=C1CCC(N2C(=O)c3ccc(N4CCN(CC(=O)N5CCC(CN6CCC(NC(=O)c7n[nH]cc7NC(=O)c7c(Cl)cccc7Cl)CC6)CC5)CC4)cc3C2=O)C(=O)N1 (centres undefined)	86.1	4.82	81.3	2.01	DC50 [5]: 8.97 nM; remaining at 1 h [6]: 61.1%; half-life [7]: 85.6 min; microsomal CLint [8]: 16.2 µL/min/mg; remaining at 1 h [9]: 1.2%; half-life [10]: 4.75 min; microsomal CLint [11]: 292 µL/min/mg
O=C1CCC(Nc2ccc(N3CCN(CC4CCN(CC(=O)N5CCC(NC(=O)c6n[nH]cc6NC(=O)c6c(Cl)cccc6Cl)CC5)CC4)CC3)c(F)c2)C(=O)N1 (centres undefined)	66.1	44.2	79.3	56.1	
O=C1CCC(N2C(=O)c3cccc(NCCCCCN4CCC(NC(=O)c5n[nH]cc5NC(=O)c5c(Cl)cccc5Cl)CC4)c3C2=O)C(=O)N1 (centres undefined)	8.01	217	12.8	136	
O=C1CCC(Nc2ccc(N3CCN(CC4CCN(CC(=O)N5CCC(NC(=O)c6n[nH]cc6NC(=O)c6c(Cl)cccc6Cl)CC5)CC4)CC3)cc2)C(=O)N1 (centres undefined)	88.9	11	74.1	35.3	DC50 [5]: 5.67 nM; remaining at 1 h [6]: 72%; half-life [7]: 136 min; microsomal CLint [8]: 10.2 µL/min/mg; remaining at 1 h [9]: 64.7%; half-life [10]: 58.8 min; microsomal CLint [11]: 26 µL/min/mg
CN1C(=O)CCC(Nc2cccc(N3CCN(CC4CCN(CC(=O)N5CCC(NC(=O)c6n[nH]cc6NC(=O)c6c(Cl)cccc6Cl)CC5)CC4)CC3)c2)C1=O (centres undefined)	12.3	501	3.15	592	
O=C1CCC(N2C(=O)c3ccc(N4CCN(C(=O)CCC(=O)N5CCC(NC(=O)c6n[nH]cc6NC(=O)c6c(Cl)cccc6Cl)CC5)CC4)cc3C2=O)C(=O)N1 (centres undefined)	39.1	42.5	31.8	31.7	
O=C(NC1CCNCC1)c1n[nH]cc1NC(=O)c1c(Cl)cccc1Cl [AT-7519]		186		173	inhibition [15]: 79%; inhibition [16]: 36%; inhibition [17]: 29%; inhibition [18]: 26%; inhibition [19]: 47%; inhibition [20]: 36%; inhibition [21]: 20%; inhibition [22]: 34%; inhibition [23]: 31%; inhibition [24]: 20%; inhibition [25]: 16%; Activity (NCI-H69 [26]): Dose-dependent-effect; Activity (NCI-H69 [27]): Dose-dependent-effect; Activity (NCI-H69 [28]): Dose-dependent-effect; Activity (NCI-H69 [29]): Dose-dependent-effect; Activity (NCI-H69 [30]): Dose-dependent-effect
O=C1CCC(N2C(=O)c3ccc(N4CCN(C(=O)CCCC(=O)N5CCC(NC(=O)c6n[nH]cc6NC(=O)c6c(Cl)cccc6Cl)CC5)CC4)cc3C2=O)C(=O)N1 (centres undefined)	3.8	261	3.22	352	
Cl.O=C1CCC(Nc2cccc(N3CCN(CC4CCN(CC(=O)N5CCC(NC(=O)c6n[nH]cc6NC(=O)c6c(Cl)cccc6Cl)CC5)CC4)CC3)c2)C(=O)N1 (centres undefined)					solubility kinetic at 2 h [4]: 290 µM
O=C1CCC(N2C(=O)c3cccc(NCCCCC(=O)N4CCC(NC(=O)c5n[nH]cc5NC(=O)c5c(Cl)cccc5Cl)CC4)c3C2=O)C(=O)N1 (centres undefined)	3.91	> 1000	9.92	772	
O=C1CCC(N2C(=O)c3cccc(NCCCCCCC(=O)N4CCC(NC(=O)c5n[nH]cc5NC(=O)c5c(Cl)cccc5Cl)CC4)c3C2=O)C(=O)N1 (centres undefined)	0.132	> 1000	11.2	> 1000	
O=C1CCC(N2C(=O)c3cccc(NCCCCCCN4CCC(NC(=O)c5n[nH]cc5NC(=O)c5c(Cl)cccc5Cl)CC4)c3C2=O)C(=O)N1 (centres undefined)	34	95.3	39.4	54.2	
O=C1CCC(N2C(=O)c3ccc(N4CCC(OC(=O)CN5CCC(NC(=O)c6n[nH]cc6NC(=O)c6c(Cl)cccc6Cl)CC5)CC4)cc3C2=O)C(=O)N1 (centres undefined)	25.2	268	18.6	> 1000	
O=C1CCC(N2C(=O)c3ccc(N4CCN(C(=O)CN5CCC(NC(=O)c6n[nH]cc6NC(=O)c6c(Cl)cccc6Cl)CC5)CC4)cc3C2=O)C(=O)N1 (centres undefined)	44.2	53.8	51.9	17.9	
O=C1CCC(N2C(=O)c3ccc(N4CCN(CC5CCN(CC(=O)N6CCC(NC(=O)c7n[nH]cc7NC(=O)c7c(Cl)cccc7Cl)CC6)CC5)CC4)cc3C2=O)C(=O)N1 (centres undefined)	89.1	1.3	83.9	2.6	DC50 [5]: 3.8 nM; remaining at 1 h [6]: 71.9%; half-life [7]: 126 min; microsomal CLint [8]: 11 µL/min/mg; remaining at 1 h [9]: 24.3%; half-life [10]: 30.4 min; microsomal CLint [11]: 46 µL/min/mg; Papp A→B at 1 h, 2 µM [12]: 0.326 ×10⁻⁶ cm/s; Papp B→A at 1 h, 2 µM [13]: 5.27 ×10⁻⁶ cm/s; efflux ratio at 1 h, 2 µM [14]: 16.2; solubility kinetic at 2 h [4]: 9.08 µM (≈ 7.83 µg/mL)
O=C1CCC(N2C(=O)c3ccc(N4CC5CN(CC(=O)N6CCC(NC(=O)c7n[nH]cc7NC(=O)c7c(Cl)cccc7Cl)CC6)CC5C4)cc3C2=O)C(=O)N1 (centres undefined)	49.4	142	38.9	156	
O=C(CNc1cccc2c1C(=O)N(C1CCC(=O)NC1=O)C2=O)NCCCCCCCCCCC(=O)N1CCC(NC(=O)c2n[nH]cc2NC(=O)c2c(Cl)cccc2Cl)CC1 (centres undefined)	21.8	161	27.9	148	
O=C1CCC(N2C(=O)c3cccc(NCCCCCC(=O)N4CCC(NC(=O)c5n[nH]cc5NC(=O)c5c(Cl)cccc5Cl)CC4)c3C2=O)C(=O)N1 (centres undefined)	17.1	> 1000	27.1	> 1000	
